Where “and” joins values, the source holds several entries; their conditions need not be identical. Identical values can stand only once. Like-named read-outs stand apart in the source and are kept apart here.
Key:
[1] = test system: T4 lymphocytes (CEM cell line); assay: Cytotoxicity in uninfected CEM cells (XTT toxicity control); details: read-out: Cell data (μM) CC50: 50% cytotoxic concentration; uninfected CEM cells, 6 days, XTT
Method: (§1) The anti-HIV drug testing was performed at NCI based on a protocol described by Weislow et al.^36 All compounds were dissolved in dimethyl sulfoxide and diluted 1:100 in cell culture medium. Exponentially growing T4 lymphocytes (CEM cell line) were added at 5000 cells per well. Frozen virus stock solutions were thawed immediately before use, suspended in complete medium to yield the desired multiplicity of infection (m. o. i.≈0.1), and added to the microtiter wells, resulting in a 1:200 final dilution of the compound. Uninfected cells with the compound served as a toxicity control, and infected and uninfected cells without the compound served as basic controls.
(§2) Cultures were incubated at 37° C. in a 5% CO2 atmosphere for 6 days. The tetrazolium salt, XTT was added to all wells, and cultures were incubated to allow formazan color development by viable cells. Individual wells were analyzed spectrophotometrically to quantitate formazan production, and in addition were viewed microscopically for detection of viable cells and confirmation of protective activity.

[2] = target: T1, purified HIV-1 integrase (HIV-1 IN) (Human immunodeficiency virus type 1 group M subtype B, UniProt P12497); assay: biochemical;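 also: integrase at 200 nM exposed to inhibitor 30 min at 30 °C, then 1 h with 20 nM 5′-32P-labelled 21-mer DNA, 3′-processing or strand transfer products quantified on denaturing gels versus no-drug enzyme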
Method: (§3) To analyze the extent of 3′-processing and strand transfer using 5′-end labeled substrates, AE118 was 5′-end labeled using T4 polynucleotide kinase (Gibco BRL) and γ[^32P]-ATP (Dupont-NEN). To determine the extent of 30mer target strand generation during disintegration, AE157 was 5′-end labeled and annealed to AE156, AE146, and AE117. The kinase was heat-inactivated and AE117 was added to the same final concentration. The mixture was heated at 95° C., allowed to cool slowly to room temperature, and run through a G-25 Sephadex quick spin column (Boehringer Mannheim, Indianapolis, Ind.) to separate annealed double-stranded oligonucleotide from unincorporated label.
(§4) To determine the extent of 3′-processing and strand transfer, integrase was preincubated at a final concentration of 200 nM with the inhibitor in a reaction buffer (50 mM NaCl, 1 mM HEPES, pH 7.5, 50 μM EDTA, 50 μM dithiothreitol, 10% glycerol (w/v), 7.5 mM MnCl2, 0.1 mg/ml bovine serum albumin, 10 mM 2-mercaptoethanol, 10% dimethyl sulfoxide, and 25 mM MOPS, pH 7.2) at 30° C. for 30 minutes. Then, 20 nM of the 5′-end ^32P labeled linear oligonucleotide substrate was added, and incubation was continued for an additional one hour. Reactions were quenched by the addition of an equal volume (16 μ) of loading dye (98% deionized formamide, 10 mM EDTA, 0.025% xylene cyanol and 0.025% bromophenol blue). An aliquot (5 μl) was electrophoresed on a denaturing 20% polyacrylamide gel (0.09 M tris-borate pH 8.3, 2 mM EDTA, 20% acrylamide, 8M urea).
(§5) Gels were dried, exposed in a PhosphorImager cassette, and analyzed using a Molecular Dynamics PhosphorImager (Sunnyvale, Calif.). Percent inhibition was calculated using the following equation: % I=100×[1−(D−C)/(N−C)] where C, N, and D are the fractions of 21-mer substrate converted to 19-mer (3′-processing product) or strand transfer products for DNA alone (C), DNA plus integrase (N), and integrase plus drug (D). All IC50 values were determined by plotting the drug concentration versus percent inhibition, and determining the concentration which produced 50% inhibition.

[3] = Cytotoxicity in uninfected CEM cells (XTT toxicity control); details: human, uninfected CEM cells (T4 lymphocytes)
Method: as §1, §2

HIV-1 infected CEM cells = assay: Anti-HIV assay in cultured CEM cells (NCI XTT protocol); assay type: cell-based
Method: as §1, §2

HIV-1 IN = target: T2, HIV-1 IN (Human immunodeficiency virus type 1 group M subtype B, UniProt P12497); assay: HIV-1 integrase inhibition with Mg+2 as cofactor (gel assay); assay type: biochemical; details: compared with Mn+2, 1000, 333, 111, 37 μM
T2 construct: An expression system for the wild-type integrase and the IN^50–212 (F185K) were obtained from the Laboratory of Molecular Biology, NIDDK; made in house
Method: FIGS. 2 and 3 show concentration dependent inhibition of HIV-1 IN by thiazolothiazepines 1, 19, and 20 using Mn^+2 (FIG. 2) and Mg^+2 (FIG. 3) as a cofactor. Lane 1, DNA alone, lanes 2 and 15 DNA and integrase, lanes 3–6, 7–10, 11–14 DNA, integrase, and compounds 1, 19, and 20 at 1000, 333, 111, and 37 μM, respectively. See Table 1 for compound identifiers 1, 19, 20.
A 21-mer oligonucleotide corresponding to the last 21 bases on the HIV-1 viral DNA in the U5 region of long terminal repeat (LTR) was radiolabeled with ^32P. This is shown in the FIGS. 2 and 3 as a band corresponding to DNA alone. Integrase will cleave the last two bases of this DNA in the presence of Mn^+2 or Mg^+2 to give a 19-mer DNA substrate (lane 2) which runs faster on the gel and is indicated as 19-mer on the Figures. When an inhibitor is added this process is blocked, therefore the original 21-mer DNA would not be cut. When an inhibitor is added at various concentrations, percent inhibition at every concentration will be calculated by quantification of the intensity of each band using an Imagequant program.
The gels are run using polyacrylamide according to the standard procedures. Upon completion of electrophoresis run, the gels are dried and exposed to a phosphorimager cassette. The cassettes are analyzed by the phosphorimager, and the bands are shown on a computer screen. The intensity of each band is quantitated, plotted against concentrations of drugs, and the IC50 values are calculated from the graphs.

[4] = target: T1, purified HIV-1 integrase (HIV-1 IN)
Method: as §3, §4, §5

Structure (SMILES)	CC50 [1]	melting point	IC50 [2]	CC50 at 6 days [3]	other results
O=C1Sc2ccc(Cl)cc2C(=O)N2CCSC12 (racemic) [Compound 2, (±)-7-Chloro-2,3-dihydro-5H-thiazolo[2,3-c][1,4]benzothiazepine-5,11 (11aH)-dione]	> 50 µM	–	–	–	–
O=C1Sc2ccc(Br)cc2C(=O)N2CCSC12 (racemic) [Compound 3, (±)-7-Bromo-2,3-dihydro-5H-thiazolo[2,3-c][1,4]benzothiazepine-5,11 (11aH)-dione]	–	219 to 220 °C	–	–	–
Cc1ccc2c(c1)C(=O)N1CCSC1C(=O)S2 (racemic) [Compound 4, (±)-2,3-Dihydro-7-methyl-5H-thiazolo[2,3-c][1,4]benzothiazepine-5,11 (11aH)-dione]	–	–	55 µM and 64 µM	–	–
O=C1Sc2ccccc2C(=O)N2CSCC12 (racemic) [Compound 5]	–	–	227 µM and 208 µM	> 200 µM	–
O=C1Sc2ccc(Cl)cc2C(=O)N2CSCC12 (racemic) [Compound 6, (±)-7-Chloro-1,11a-dihydro-3H,5H,11H-thiazolo[4,3-c][1,4]benzothiazepine-5,11-dione]	> 100 µM	204 to 205 °C	–	–	–
O=C1Sc2ccc(Br)cc2C(=O)N2CSCC12 (racemic) [Compound 7, (±)-7-Bromo-1,11a-dihydro-3H,5H,11H-thiazolo[4,3-c][1,4]benzothiazepine-5,11-dione]	> 200 µM	213 to 214 °C	–	–	–
Cc1ccc2c(c1)C(=O)N1CSCC1C(=O)S2 (racemic) [Compound 8, (±)-1,11a-Dihydro-7-methyl-3H,5H,11H-thiazolo[4,3-c][1,4]benzothiazepine-5,11-dione]	35 µM	–	–	–	–
O=C1Sc2cc([N+](=O)[O-])ccc2C(=O)N2CSCC12 (racemic) [Compound 9, (±)-1,11a-Dihydro-8-nitro-3H,5H,11H-thiazolo[4,3-c][1,4]benzothiazepine-5,11-dione]	> 50 µM	231 to 232 °C	–	–	–
COc1ccc2c(c1)C(=O)N1CSCC1C(=O)S2 (racemic) [Compound 10, (±)-1,11a-dihydro-7-methoxy-3H,5H, 11H-thiazolo[4,3-c][1,4]benzothiazepine-5,11-dione]	> 200 µM	–	–	–	–
Cc1ccc2c(c1)C(=O)N1CC[S+]([O-])C1C(=O)S2 (racemic) [Compound 15, (±)-cis-2,3-Dihydro-7-methyl-5H-thiazolo[2,3-c][1,4]benzothiazepine-5,11 (11aH)-dione 1-Oxide]	–	211 to 212 °C	590 ± 350 µM	> 100 µM	–
O=C1Sc2ccccc2C(=O)N2C[S+]([O-])CC12 (racemic) [Compound 16, (±)-cis-1,11a-Dihydro-3H,5H,11H-thiazolo[4,3-c][1,4]benzothiazepine-5,11-dione 2-oxide]	–	–	215 µM and 222 µM and 200 µM and 185 µM	–	–
O=C1Sc2ccc(Cl)cc2C(=O)N2C[S+]([O-])CC12 (racemic) [Compound 17, (±)-cis-7-Chloro-1,11a-dihydro-3H,5H,11H-thiazolo[4,3-c][1,4]benzothiazepine-5,11-dione 2-Oxide]	–	213 to 215 °C	280 µM and 200 µM and 260 µM and 215 µM	–	–
COc1ccc2c(c1)C(=O)N1C[S+]([O-])CC1C(=O)S2 (racemic) [Compound 18, (±)-cis-1,11a-Dihydro-7-methoxy-3H,5H,11H-thiazolo[4,3-c][1,4]benzothiazepine-5,11-dione 2-Oxide]	–	172 to 174 °C	142 µM and 84.5 µM	–	–
O=C1Sc2cc3ccccc3cc2C(=O)N2CCSC12 (racemic) [Compound 19, (±)-2,3-Dihydro-5H-naphto[2,3-f]thiazolo[2,3-c][1,4]thiazepine-5,13(13aH)-dione]	–	–	47 ± 6 µM	> 316 µM	therapeutic index (TI=CC50/EC50) (HIV-1 infected CEM cells): > 5; activity against IN in the presence of Mg+2 (HIV-1 IN): active in the presence of Mg^+2 within the same concentration range as in Mn^+2
O=C1Sc2cc3ccccc3cc2C(=O)N2CSCC12 (racemic) [Compound 20, (±)-1,13a-Dihydro-3H,5H,11H-naphto[2,3-f]thiazolo[4,3-c][1,4]thiazepine-5,13-dione]	–	–	92 µM and 100 µM	> 316 µM	activity against IN in the presence of Mg+2 (HIV-1 IN): active in the presence of Mg^+2 within the same concentration range as in Mn^+2
O=C1c2ccccc2SC(O)(c2ccccc2)C2CCCN12 (racemic) [Compound 26, (±)-2,3,11,11a-Tetrahydro-11-hydroxy-11-phenyl-1H,5H-pyrrolo [2,1-c][1,4]benzothiazepin-5-one]	–	137 to 141 °C	–	–	–
CN1CCN([C@@H]2Sc3ccccc3C(=O)N3CCC[C@@H]23)CC1 (racemic) [Compound 27, (±)-cis-2,3,11,11a-Tetrahydro-11-(4-methylpiperazin-1-yl)-1H,5H-pyrrolo[2,1-c][1,4]benzothiazepin-5-one]	> 125 µM	–	–	–	–
CN1CCN(Cc2ccc3n2Cc2ccccc2SC3c2ccccc2)CC1 (racemic) [Compound 31, (±)-3-[(4-Methylpiperazin-1-yl)methyl]-11-phenyl-5H,11H-pyrrolo [2,1-c][1,4]benzothiazepine]	–	161 to 162 °C	–	–	–
O=C1Sc2ccccc2C(=O)N2CCSC12 (stereo not drawn) [Compound 1]	–	–	110 µM and 146 µM	> 200 µM	therapeutic index (TI=CC50/EC50) (HIV-1 infected CEM cells): > 1.8; activity against IN in the presence of Mg+2 (HIV-1 IN): active in the presence of Mg^+2 within the same concentration range as in Mn^+2
COc1cc2c(cc1OC)C(=O)N1CSCC1C(=O)S2 (stereo not drawn) [Compound 11]	–	–	330 µM and 670 µM and 630 µM	> 50 µM	–
COc1cc2c(cc1OC)C(=O)N1CCCC1C(=O)S2 (stereo not drawn) [Compound 13]	–	–	–	> 200 µM	–
O=C1Sc2ccccc2C(=O)N2CCCCC12 (stereo not drawn) [Compound 14]	–	–	343 µM and 406 µM and 495 µM	> 200 µM	–
CC(=O)OC1Sc2ccccc2C(=O)N2CCCC12 (stereo not drawn) [Compound 21]	–	–	–	> 200 µM	–
COC1Sc2ccccc2C(=O)N2CCCC12 (stereo not drawn) [Compound 22]	> 200 µM	–	–	–	–
COc1cc2c(cc1OC)C(=O)N1CCCC1CS2 (stereo not drawn) [Compound 24]	–	–	–	> 200 µM	–
O=C1c2ccccc2SC(O)C2CCCN12 (stereo not drawn) [Compound 25]	–	–	–	> 200 µM	–
O=C1Sc2ccccc2Cn2cccc21 [Compound 28]	> 200 µM	–	–	–	IC50 [4]: 590 µM and 300 µM
CCOC(=O)C1Sc2ccccc2C(=O)n2cccc21 (stereo not drawn) [Compound 29]	–	–	> 1000 µM	–	–
CN(C)Cc1ccc2n1C(=O)c1ccccc1SC2c1ccc(F)cc1 (stereo not drawn) [Compound 30]	–	–	> 1000 µM	–	–
